Data reported in ChEMBL document CHEMBL3046046, “Design, synthesis, and QSAR study of novel 2-(2,3-dioxo-2,3-dihydro-1H-indol-1-yl)-N-phenylacetamide derivatives as cytotoxic agents” (Med Chem Res, 2011).

Experiments:
[1] = tested on: Vero; assay: Cytotoxicity against Chlorocebus aethiops (African green monkey) Vero cells after 72 hr by XTT assay; assay type: cell-based; settings: Chlorocebus sabaeus
[2] = tested on: MCF7; assay: Cytotoxicity against Homo sapiens (human) MCF7 cells after 72 hr by XTT assay; assay type: functional, cell-based; settings: MCF7, 72 h
[3] = tested on: MCF7; assay: Cytotoxicity against Homo sapiens (human) MCF7 cells assessed as cell survival after 72 hr by XTT assay; assay type: functional; set-up: concentration or dose not given beside the values
[4] = Cytotoxicity against Chlorocebus aethiops (African green monkey) Vero cells assessed as cell survival after 72 hr by XTT assay; assay type: cell-based; set-up: concentration or dose not given beside the values; settings: chlorocebus sabaeus, read-out: Activity

Row | Structure (SMILES) | IC50 [1] [µM] | IC50 [2] [µM] | Activity [3] [%] | viability at 72 h [4] [%]
1 | O=C(CN1C(=O)C(=O)c2cc(Br)cc(Br)c21)Nc1ccc([N+](=O)[O-])cc1 | 38.1 | 1.96 |  | 
2 | Cc1ccc(NC(=O)CN2C(=O)C(=O)c3cc(Br)cc(Br)c32)cc1 | 25 | 2.43 |  | 
3 | O=C(CN1C(=O)C(=O)c2cc(Br)cc(Br)c21)Nc1ccccc1[N+](=O)[O-] | 26 | 2.04 |  | 
4 | Cc1ccccc1NC(=O)CN1C(=O)C(=O)c2cc(Br)cc(Br)c21 | 29.9 | 3.85 |  | 
5 | O=C(CN1C(=O)C(=O)c2ccccc21)Nc1ccc([N+](=O)[O-])cc1 |  |  | >50 | > 50
6 | Cc1ccc(NC(=O)CN2C(=O)C(=O)c3ccccc32)cc1 |  |  | >50 | > 50
7 | O=C(CN1C(=O)C(=O)c2ccccc21)Nc1ccccc1[N+](=O)[O-] |  |  | >50 | > 50
8 | Cc1ccccc1NC(=O)CN1C(=O)C(=O)c2ccccc21 |  |  | >50 | > 50
9 | O=C(CN1C(=O)C(=O)c2cc(Br)cc(Br)c21)Nc1ccccc1 | 28.1 | 3.91 |  | 
10 | O=C(CN1C(=O)C(=O)c2ccccc21)Nc1ccccc1 |  |  | >50 | > 50
11 | CC[C@]1(O)C[C@@H]2CN(CCc3c([nH]c4ccccc34)[C@@](C(=O)OC)(c3cc4c(cc3OC)N(C)[C@H]3[C@@](O)(C(=O)OC)[C@H](OC(C)=O)[C@]5(CC)C=CCN6CC[C@]43[C@@H]65)C2)C1 [VINBLASTINE] | 27.1 | 1.9 |  | 
